In ChEMBL document CHEMBL1154755, “Discovery of 6alpha-ethyl-23(S)-methylcholic acid (S-EMCA, INT-777) as a potent and selective agonist for the TGR5 receptor, a novel target for diabesity” (J Med Chem, 2009):

Columns and labels:
[1] = Metabolic stability in bile fistula rat model assessed as intact drug level recovered in bile at 1 umol/min/kg administered intraduodenally over 1 hr; type: ADME; conditions: in vivo, other
[2] = Metabolic stability in bile fistula rat model assessed as intact drug level recovered in bile at 1 umol/min/kg, iv over 1 hr; type: ADME, organism-based; conditions: in vivo
[3] = Metabolic stability in human stool broth culture assessed as unmodified drug level after 12 hrs; type: ADME; conditions: read-out: Stability

Compound	Stability [1] [%Idose]	Stability [2] [%Idose]	remaining at 12 h [3] [%]
CC[C@H]1[C@@H](O)[C@@H]2[C@H](C[C@H](O)[C@]3(C)[C@@H]([C@H](C)C[C@H](C)C(=O)O)CC[C@@H]23)[C@@]2(C)CC[C@@H](O)C[C@@H]12	94	93	> 95
CC[C@H]1[C@@H](O)[C@@H]2[C@H](C[C@H](O)[C@]3(C)[C@@H]([C@H](C)C[C@@H](C)C(=O)O)CC[C@@H]23)[C@@]2(C)CC[C@@H](O)C[C@@H]12	68	65	–
C[C@H](CCC(=O)O)[C@H]1CC[C@H]2[C@@H]3[C@H](O)C[C@@H]4C[C@H](O)CC[C@]4(C)[C@H]3CC[C@]12C [CHENODIOL]	3	4	–
C[C@H](CCC(=O)O)[C@H]1CC[C@H]2[C@@H]3[C@H](O)C[C@@H]4C[C@H](O)CC[C@]4(C)[C@H]3C[C@H](O)[C@]12C [CHOLIC ACID]	12	8	–
